Assay results taken from patent US20180346446A1, “IRE1 SMALL MOLECULE INHIBITORS” (QUENTIS THERAPEUTICS, INC., priority 2017, published 2018).

Legend:
[1] = biological target: T1, IRE1a (Homo sapiens, UniProt O75460); assay: IRE1a Endoribonuclease Nanoluciferase Assay (XBP1 luciferase reporter in 293T cells); type: cell-based; settings: 293T cells transfected with XBP1 luciferase reporter, ER stressors +/- inhibitors
Description: Compounds disclosed herein were assessed for disruption of IRE1 signaling using a IRE1a Endoribonuclease Nanoluciferase Assay. Briefly, 2.5×10^6 293T cells were seeded in a 10 cm^2 tissue culture plate. About 24 hours later, the cells were transfected with Effectene. In a 15 mL Tube, the following was added: 2 ug XBP1 luciferase reporter plasmid (PGK-Luc2-P2A-XBP1u-Nanoluciferase-PEST); 300 ul EC buffer; and 16 ul Enhancer, followed by incubation at room temp for 5 minutes. Next, 60 ul Effectene (Qiagen 301427) was added, followed by incubation at room temperature for 10 minutes. 2.6 mL cDMEM media was added. Old media was aspirated from the cells, followed by addition of 7 mL fresh media. Full transfection mixture was added dropwise to cells. Cells were incubated for 6 hours, followed by trypsinization, centrifugation and resuspension in 11 mL media. 100 uL of cells were plated per a well in a 96 well plate. A day later, ER stressors of choice +/− inhibitors were added. To harvest, media was aspirated from cells completely, then 50 uL 1× passive lysis buffer (Promega: E1941) was added per well and put on shaker (300 rpm) for 30 minutes at room temperature. Cells were centrifuged, and 15 uL sample per well was added to a new, opaque white 384 well plate (Corning 3570). 15 uL OneGlo (nanoluciferase kit, Promega N1630) was added. Plates were spun down, placed on shaker (300 rpm) for 10 minutes. Plates were read on luminometer, 1000 ms integration time per well. 15 uL Stop and Glo (nanoluciferase kit) was added. Plates were spun down, placed on shaker (300 rpm) for 10 minutes. Plates were read on luminometer, 1000 ms second integration time per well. Recordings are provided below in Table 4.

[2] = biological target: T1, IRE1a; assay: In vitro FRET assay (XBP1 RNA probe cleavage by IRE1a); type: biochemical; set-up: purchased SignalChem; settings: 2 nM IRE1a protein
Description: In vitro FRET assay was performed to evaluate the ability of select compounds to inhibit IRE1, the results of which are summarized in Table 3. To perform the in vitro FRET assay, 1× complete assay buffer (CAB; […], 50 mM sodium citrate pH 7.15, ImM magnesium acetate, 0.02% tween 20) was used to dilute SignalChem IRE1a protein to a final concentration of 2 nM. Selected compounds were serially diluted with DMSO in a non-binding black 384-well plate for a total of 15 ul in each well. 2 ul of the serially diluted compound or DMSO control were then added to new wells containing 98 ul of 1×CAB, for a total volume of 100 ul, 10 ul of which were then transferred to wells of a new plate. 5 ul of the diluted IRE1a was then added to each well. 5 ul of a […] XBP1 RNA probe was then added to each well. Fluorescence was then read over 30 minutes in kinetic mode (485/515 nm).
Two RNA probes were used, XBP1 wildtype (SEQ ID NO: 2) which is able to be spliced by active IRE1a or XBP1 mutant (SEQ ID NO: 3) which is unable to be spliced. Each probe contained a 5′ 6-FAM modification and a 3′ IOWA Black FQ modification. […]

T1 sequence (O75460 19-977): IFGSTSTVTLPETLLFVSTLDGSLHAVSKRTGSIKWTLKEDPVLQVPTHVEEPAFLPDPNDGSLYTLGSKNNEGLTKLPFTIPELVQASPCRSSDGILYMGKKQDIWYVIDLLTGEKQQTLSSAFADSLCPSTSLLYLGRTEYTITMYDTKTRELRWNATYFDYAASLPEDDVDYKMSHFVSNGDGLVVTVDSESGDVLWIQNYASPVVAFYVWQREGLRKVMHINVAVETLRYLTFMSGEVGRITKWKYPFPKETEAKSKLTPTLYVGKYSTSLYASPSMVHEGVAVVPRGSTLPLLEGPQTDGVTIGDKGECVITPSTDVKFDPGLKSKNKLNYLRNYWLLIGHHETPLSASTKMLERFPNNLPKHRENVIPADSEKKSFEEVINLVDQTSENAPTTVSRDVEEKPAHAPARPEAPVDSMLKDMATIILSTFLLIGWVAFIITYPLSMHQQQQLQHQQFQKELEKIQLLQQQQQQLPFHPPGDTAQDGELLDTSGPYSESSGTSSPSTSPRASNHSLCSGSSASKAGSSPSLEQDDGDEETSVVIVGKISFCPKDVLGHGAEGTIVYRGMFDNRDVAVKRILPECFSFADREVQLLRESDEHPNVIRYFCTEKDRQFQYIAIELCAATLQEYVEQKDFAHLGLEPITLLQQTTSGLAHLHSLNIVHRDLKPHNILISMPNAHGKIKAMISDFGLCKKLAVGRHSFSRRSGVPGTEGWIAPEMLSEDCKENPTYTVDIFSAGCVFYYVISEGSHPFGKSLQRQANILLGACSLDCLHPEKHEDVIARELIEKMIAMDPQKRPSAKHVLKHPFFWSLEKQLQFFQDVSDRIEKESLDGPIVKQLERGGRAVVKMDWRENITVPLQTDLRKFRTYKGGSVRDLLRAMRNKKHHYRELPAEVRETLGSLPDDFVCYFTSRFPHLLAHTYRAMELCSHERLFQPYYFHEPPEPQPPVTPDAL

Row | SMILES | EC50 [1] [nM] | IC50 [2] [nM]
1 | Cc1nc(NS(=O)(=O)c2ccccc2Cl)ncc1-c1ccc2nc(N[C@H]3CC[C@H](N)CC3)ncc2c1 [68; Formic Acid] | 50 to 100 | ≤ 5
2 | CCc1cc(-c2ccc(NS(=O)(=O)c3ccccc3Cl)c(F)c2)cc2cnc(N[C@@H]3CC[C@H](N)[C@H](C)C3)nc12 [70; Formic Acid] | ≤ 5 | ≤ 5
3 | CCc1cc(-c2ccc(NS(=O)(=O)c3ccccc3Cl)c(F)c2)cc2cnc(N[C@@H]3CCC[C@H](N)C3)nc12 [72; Formic Acid] | > 100 | ≤ 5
4 | CCc1cc(-c2ccc(NS(=O)(=O)c3ccccc3Cl)c(F)c2)cc2cnc(N[C@H]3CCCNC3)nc12 [73; Formic Acid] | ≤ 5 | ≤ 5
5 | CCc1cc(-c2ccc(NS(=O)(=O)c3ccccc3Cl)c(F)c2)cc2cnc(N[C@@H]3CC[C@@H](N)[C@H](C)C3)nc12 [74; Formic Acid] | ≤ 5 | ≤ 5
6 | NC1CCCC(Nc2ncc3cc(-c4ccc(NS(=O)(=O)c5ccccc5Cl)c(F)c4)ccc3n2)C1 (stereo not drawn) [75; Formic Acid] | > 100 | ≤ 5
7 | O=S(=O)(Nc1ccc(-c2ccc3nc(N[C@H]4CCCNC4)ncc3c2)cc1F)c1ccccc1Cl [76; Formic Acid] | 5 to 50 | ≤ 5
8 | N[C@@H]1CC[C@@H](Nc2ncc3cc(-c4ccc(NS(=O)(=O)c5ccccc5Cl)c(F)c4)ccc3n2)C1 [77; Formic Acid] | 5 to 50 | ≤ 5
9 | CCc1cc(-c2ccc(NS(=O)(=O)c3ccccc3Cl)c(F)c2)cc2cnc(N[C@@H]3CC[C@@H](N)C3)nc12 [78; Formic Acid] | ≤ 5 | ≤ 5
10 | CCc1cc(-c2ccc(NS(=O)(=O)c3ccccc3Cl)c(F)c2)cc2cnc(N[C@@H]3CC[C@H](N)C3)nc12 [79; Formic Acid] | 5 to 50 | ≤ 5
11 | N[C@H]1CC[C@@H](Nc2ncc3cc(-c4ccc(NS(=O)(=O)c5ccccc5Cl)c(F)c4)ccc3n2)C1 [80; Formic Acid] | > 100 | ≤ 5
12 | NC12CCC(Nc3ncc4cc(-c5ccc(NS(=O)(=O)c6ccccc6Cl)c(F)c5)ccc4n3)(CC1)CC2 [81; Formic Acid] | ≤ 5 | ≤ 5
13 | CCc1cc(-c2ccc(NS(=O)(=O)c3ccccc3Cl)c(F)c2)cc2cnc(N[C@H]3CC4C[C@H](N)CC4C3)nc12 (stereo partly drawn) [82; Formic Acid] | 5 to 50 | ≤ 5
14 | CCc1cc(-c2ccc(NS(=O)(=O)c3ccccc3Cl)c(F)c2)cc2cnc(N[C@H]3CC4C[C@@H](N)CC4C3)nc12 (stereo partly drawn) [84; Formic Acid] | 5 to 50 | ≤ 5
15 | N[C@H]1CC2C[C@@H](Nc3ncc4cc(-c5ccc(NS(=O)(=O)c6ccccc6Cl)c(F)c5)ccc4n3)CC2C1 (stereo partly drawn) [85; Formic Acid] | > 100 | ≤ 5
16 | NC12CCC(Nc3ncc4cc(-c5ccc(NS(=O)(=O)c6ccccc6Cl)c(F)c5)ccc4n3)(CC1)C2 [86; Formic Acid] | 50 to 100 | ≤ 5
17 | CCc1cc(-c2ccc(NS(=O)(=O)c3ccccc3Cl)c(F)c2)cc2cnc(NC34CCC(N)(CC3)CC4)nc12 [87; Formic Acid] | ≤ 5 | ≤ 5
18 | CCc1cc(-c2ccc(NS(=O)(=O)c3ccccc3Cl)c(F)c2)cc2cnc(N[C@H]3CC[C@H](N4CCCC4)CC3)nc12 [88; Formic Acid] | ≤ 5 | ≤ 5
19 | N[C@H]1CC[C@H](Nc2ncc3cc(-c4nnc(NS(=O)(=O)c5ccccc5Cl)s4)ccc3n2)CC1 [89; Formic Acid] | > 100 | ≤ 5
20 | Cc1cc2nc(N[C@H]3CC[C@H](N)CC3)ncc2cc1-c1ccc(NS(=O)(=O)c2ccccc2Cl)c(F)c1 [90; Formic Acid] | 5 to 50 | ≤ 5
21 | CCc1cc(-c2cnc(NS(=O)(=O)c3ccccc3Cl)cc2OC)cc2cnc(N[C@H]3CC[C@H](N)CC3)nc12 [92; Formic Acid] | > 100 | ≤ 5

Row | SMILES | EC50 [1] [nM] | IC50 [2] [nM]
22 | CCc1cc(-c2ncc(NS(=O)(=O)c3ccccc3Cl)cc2OC)cc2cnc(N[C@H]3CC[C@H](N)CC3)nc12 [93; Formic Acid] | ≤ 5 | ≤ 5
23 | CCc1cc(-c2ncc(NS(=O)(=O)c3ccccc3Cl)nc2C)cc2cnc(N[C@H]3CC[C@H](N)CC3)nc12 [94; Formic Acid] | ≤ 5 | ≤ 5
24 | CCc1cc(-c2ncc(NS(=O)(=O)c3ccccc3Cl)nc2OC)cc2cnc(N[C@H]3CC[C@H](N)CC3)nc12 [98; Formic Acid] | ≤ 5 | ≤ 5
25 | CCc1cc(-c2cc(CC)c3nc(N[C@H]4CC[C@H](N)CC4)ncc3c2)nnc1NS(=O)(=O)c1ccccc1Cl [100; Formic Acid] | 50 to 100 | ≤ 5
26 | COc1nc(NS(=O)(=O)c2ccccc2C#N)ccc1-c1cc2cnc(N[C@H]3CC[C@H](N)CC3)nc2cc1C [102; Formic Acid] | 50 to 100 | ≤ 5
27 | CCc1cc(-c2ccc(NS(=O)(=O)c3ccccc3C)nc2OC)cc2cnc(N[C@H]3CC[C@H](N)CC3)nc12 [103; Formic Acid] | ≤ 5 | ≤ 5
28 | COc1nc(NS(=O)(=O)c2ccccc2Cl)ccc1-c1cc2cnc(N[C@H]3CC[C@H](N)CC3)nc2cc1C [104; Formic Acid] | 50 to 100 | ≤ 5
29 | CCc1cc(-c2ccc(NS(=O)(=O)c3ccccc3Cl)nc2OC(F)(F)F)cc2cnc(N[C@H]3CC[C@H](N)CC3)nc12 [107; Formic Acid] | ≤ 5 | ≤ 5
30 | CCc1cc(-c2ccc(NS(=O)(=O)c3ccccc3OC)nc2OC)cc2cnc(N[C@H]3CC[C@H](N)CC3)nc12 [109; Formic Acid] | ≤ 5 | ≤ 5
31 | CCc1cc2nc(N[C@H]3CC[C@H](N)CC3)ncc2cc1-c1ccc(NS(=O)(=O)c2ccccc2Cl)nc1OC [110; Formic Acid] | ≤ 5 | ≤ 5
32 | CCc1cc(-c2ccc(NS(=O)(=O)c3ccccc3)nc2C)cc2cnc(N[C@H]3CC[C@H](N)CC3)nc12 [111; Formic Acid] | 50 to 100 | ≤ 5
33 | CCc1cc(-c2ccc(NS(=O)(=O)c3ccccc3C)nc2C)cc2cnc(N[C@H]3CC[C@H](N)CC3)nc12 [112; Formic Acid] | 5 to 50 | ≤ 5
34 | CCc1cc(-c2ccc(NS(=O)(=O)c3cccc(C)c3)nc2C)cc2cnc(N[C@H]3CC[C@H](N)CC3)nc12 [113; Formic Acid] | 5 to 50 | ≤ 5
35 | COc1nc(NS(=O)(=O)c2ccccc2Cl)ccc1-c1cc(C)c2nc(N[C@H]3CC[C@H](N)CC3)ncc2c1 [115; Formic Acid] | ≤ 5 | ≤ 5
36 | CCc1cc(-c2cc(F)c(NS(=O)(=O)c3ccccc3Cl)cc2OC)cc2cnc(N[C@H]3CC[C@H](N(C)C)CC3)nc12 [120; Formic Acid] | ≤ 5 | ≤ 5
37 | CCc1cc(-c2cc(F)c(NS(=O)(=O)c3ccccc3Cl)cc2OC)cc2cnc(N[C@H]3CC[C@H](NC)CC3)nc12 [121; Formic Acid] | ≤ 5 | ≤ 5
38 | COc1nc(NS(=O)(=O)c2ccccc2Cl)ccc1-c1cc(C(C)(F)F)c2nc(N[C@H]3CC[C@H](N)CC3)ncc2c1 [123; Formic Acid] | ≤ 5 | ≤ 5
39 | COCc1cc(-c2ccc(NS(=O)(=O)c3ccccc3Cl)nc2OC)cc2cnc(N[C@H]3CC[C@H](N)CC3)nc12 [129; Formic Acid] | ≤ 5 | ≤ 5
40 | COc1nc(NS(=O)(=O)c2ccccc2Cl)ccc1-c1cc(C(F)(F)F)c2nc(N[C@H]3CC[C@H](N)CC3)ncc2c1 [134; Formic Acid] | ≤ 5 | ≤ 5
41 | CCc1nc(NS(=O)(=O)c2ccccc2Cl)ccc1-c1cc(CC)c2nc(NC34CCC(N(C)C)(CC3)CC4)ncc2c1 [136; Formic Acid] | ≤ 5 | ≤ 5
42 | COc1nc(NS(=O)(=O)c2ccccc2Cl)ccc1-c1cc(C)c2nc(N[C@H]3CC[C@@H](N)CC3)ncc2c1 [138; Formic Acid] | 50 to 100 | ≤ 5
